Data set [1] in a line: Physical stability, Thioflavin T fibrillation assay (Example 14). The settings on record: 3 mg/ml, 37° C. shaking. The class given is physicochemical. The method, boiled down: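 Fibrillation tendency was judged from lag time and rise in Thioflavin T fluorescence, measured every 20 minutes over eight replicates per sample. Peptides at 3 mg/ml final were held at 37° C under cycles of 10 s shaking (960 rpm) and 50 s rest.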

In a further data set the target is T1, recombinant human CRF2 (Homo sapiens, UniProt Q13324).
T1 construct: expressed in transfected cells; host or cells: HEK
T1 sequence (Q13324 1-411): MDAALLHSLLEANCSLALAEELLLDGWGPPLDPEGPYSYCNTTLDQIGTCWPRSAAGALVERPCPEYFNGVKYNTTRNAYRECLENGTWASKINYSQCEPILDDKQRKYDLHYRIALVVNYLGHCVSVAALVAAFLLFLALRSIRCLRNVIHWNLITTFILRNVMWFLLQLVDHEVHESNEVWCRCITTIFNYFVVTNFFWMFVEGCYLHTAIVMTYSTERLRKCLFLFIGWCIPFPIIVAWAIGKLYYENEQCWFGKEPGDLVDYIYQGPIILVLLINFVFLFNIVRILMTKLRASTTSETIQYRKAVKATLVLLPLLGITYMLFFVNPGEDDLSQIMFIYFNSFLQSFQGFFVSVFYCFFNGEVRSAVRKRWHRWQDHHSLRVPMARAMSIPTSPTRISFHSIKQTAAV
Description: CRF2a (h) agonist radioligand binding, [125]sauvagine, HEK cell membranes (Example 11). Particulars: competition with [125]sauvagine 0.1 nM. The method, then:
Receptor binding of the compounds was assessed using a CRF2a (h) (agonist radioligand) assay.
HEK cells expressing recombinant human CRF2 were used as a source of receptor for membrane preparation.
IC50 values (concentration causing a half-maximal inhibition of control specific binding) and Hill coefficients (nH) were determined by non-linear regression analysis of the competition curves generated with mean replicate values using Hill equation curve fitting. The inhibition constants (Ki) were calculated using the Cheng Prusoff equation [Ki=IC50/(1+L/KD) where L is the concentration of radioligand in the assay, and KD is the affinity of the radioligand for the receptor). A Scatchard plot was used to determine the KD.

Another data set deals with rat CRF2R α receptor. Briefly: cAMP agonism at rat CRF2R α receptor in A7R5 rat aortic smooth muscle cells (Example 8). It counts as cell-based. The settings on record: cAMP HTRF, A7R5 rat aortic smooth muscle cell line, 0% HSA. Summed up:
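Potency (EC50) is the concentration reaching half-maximal activation, with responses scaled so that 1000 nM urocortin 2 equals 100%. Intracellular cAMP was quantified by homogeneous time-resolved fluorescence at 665/620 nm, 1 h after lysis-buffer reagents. Compound stimulation lasted 30 min at room temperature on 2000 IBMX-treated (2 mM) cells per well in HEPES-buffered HBSS.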
In general terms: Time-resolved FRET reads energy transfer from a long-lived donor to a nearby acceptor.

Data set [2] in a line: Physical stability, dynamic light scattering assay (Example 15). It counts as physicochemical. Particulars: Buffer C (20 mM phosphate, pH 6.2). Summed up:
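DLS at 837 nm, 150° angle, +25° C; Rh, scattering intensity and mass contribution measured at 0 weeks and after 4 weeks at 40° C. Rh and D compared at 1, 5 and 10 mg/ml as kD surrogate; separate measurements at 300 μM, purity-corrected.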

Setting [3] is: Buffer A: 100 mM acetate buffer, pH 4.5.
Where [4] appears, read: Buffer B: 100 mM acetate buffer, pH 4.5, 2.7 mg/ml m-cresol.

The structures appear in SMILES notation. Starred links: 1 amine or outer side, 2 acyl side, 3 side chain; linkers in the order of their positions; H or OH if unused. Residues, ends and D or L forms follow the SMILES beside them. Groups on a side chain read outwards from the residue. *: point of attachment. C20 diacid = O=C(O)CCCCCCCCCCCCCCCCCCC(=O)*; C18 diacid = O=C(O)CCCCCCCCCCCCCCCCC(=O)*; γGlu = O=C(O)[C@H](CCC(=O)[*:2])N[*:1]; AEEA = NCCOCCOCC(=O)O Some results are limits rather than exact numbers.

One may read the EC50 as the midpoint of the concentration-response curve. Low values mean an effect from little substance, high ones a need for much substance.

For the compound `CC[C@H](C)[C@H](N)C(=O)N[C@H](C(=O)N[C@@H](CC(C)C)C(=O)N[C@@H](CO)C(=O)N[C@@H](CC(C)C)C(=O)N[C@@H](CC(=O)O)C(=O)N[C@H](C(=O)N1CCC[C@H]1C(=O)N[C@H](C(=O)N[C@@H](CCCCN)C(=O)N[C@@H](CC(C)C)C(=O)N[C@@H](CCCCNC(=O)COCCOCCNC(=O)COCCOCCNC(=O)CC[C@H](NC(=O)CCCCCCCCCCCCCCCCC(=O)O)C(=O)O)C(=O)N[C@@H](CCCCN)C(=O)N[C@H](C(=O)N[C@@H](CC(C)C)C(=O)N[C@@H](CC(C)C)C(=O)N[C@@H](CCC(=O)O)C(=O)N[C@@H](CCC(N)=O)C(=O)N[C@@H](CCC(=O)O)C(=O)N[C@@H](CCCCN)C(=O)N[C@@H](CCC(N)=O)C(=O)N[C@@H](CCCCN)C(=O)N[C@@H](CCCCN)C(=O)N[C@@H](CCC(N)=O)C(=O)N[C@@H](CCCNC(=N)N)C(=O)N[C@@H](CCC(=O)O)C(=O)N[C@@H](CCC(N)=O)C(=O)N[C@@H](C)C(=O)N[C@@H](CCC(=O)O)C(=O)N[C@H](C(=O)N[C@@H](CC(N)=O)C(=O)N[C@@H](CCCCN)C(=O)N[C@@H](CCC(N)=O)C(=O)N[C@H](C(=O)N[C@@H](CC(C)C)C(=O)N[C@@H](C)C(=O)N[C@@H](CCC(N)=O)C(=O)N[C@H](C(N)=O)C(C)C)[C@@H](C)CC)[C@@H](C)O)[C@@H](C)CC)[C@@H](C)CC)C(C)C)C(C)C` [compound 35] (H-IVLSLDVPIKLK([AEEA-AEEA-γGlu-C18 diacid])KILLEQEKQKKQREQAETNKQILAQV-NH2; N-terminus assumed), in data set [1] (setting [3]), the “Increase in FI (fluorescence intensity)” value is “No” and the “Lag time” value is above 45 h. Further, in data set [1] (setting [4]), the “Increase in FI (fluorescence intensity)” value is “No” and the “Lag time” value is listed as above 45 h. Also, the “nH (Hill coefficient)” value on recombinant human CRF2 is recorded as 1.7. Also, the EC50 with rat CRF2R α receptor was 0.81 nM.

In the case of `CC[C@H](C)[C@H](NC(=O)[C@H](CCC(N)=O)NC(=O)[C@H](CCC(=O)O)NC(=O)[C@H](CC(C)C)NC(=O)[C@H](CC(C)C)NC(=O)[C@H](CCC(N)=O)NC(=O)[C@H](CCCCN)NC(=O)[C@H](CC(N)=O)NC(=O)[C@H](CCCCN)NC(=O)[C@H](CCC(=O)O)NC(=O)[C@H](C)NC(=O)[C@H](CCC(N)=O)NC(=O)[C@H](CCC(N)=O)NC(=O)[C@H](CCCNC(=N)N)NC(=O)[C@H](CCC(=O)O)NC(=O)[C@H](CCCCN)NC(=O)[C@H](CCCCN)NC(=O)[C@H](CCC(N)=O)NC(=O)[C@H](CCCCN)NC(=O)[C@H](CCC(N)=O)NC(=O)[C@H](CCC(N)=O)NC(=O)[C@H](CCCCN)NC(=O)[C@H](CC(C)C)NC(=O)[C@H](CC(C)C)NC(=O)[C@@H](NC(=O)[C@H](CCC(N)=O)NC(=O)[C@H](CCCCNC(=O)COCCOCCNC(=O)COCCOCCNC(=O)CC[C@H](NC(=O)CCCCCCCCCCCCCCCCCCC(=O)O)C(=O)O)NC(=O)[C@@H](NC(=O)[C@H](CCCCN)NC(=O)[C@@H](NC(=O)[C@@H]1CCCN1C(=O)[C@@H](NC(=O)[C@H](CC(=O)O)NC(=O)[C@H](CC(C)C)NC(=O)[C@H](CO)NC(=O)[C@H](CC(C)C)NC(=O)[C@@H](NC(=O)[C@@H](N)Cc1ccccc1)[C@@H](C)O)C(C)C)[C@@H](C)O)[C@@H](C)CC)[C@@H](C)CC)C(N)=O` [compound 59] (H-FTLSLDVPTKIK([AEEA-AEEA-γGlu-C20 diacid])QILLKQQKQKKERQQAEKNKQLLEQI-NH2), in data set [2] (0 weeks), the “Apparent Rh [nm] 0 weeks” value stood at 3.66 ± 0.05 nm and the “Scattering Intensity (I) [%] 0 weeks” value amounted to 100 ± 0%. Further, in data set [2] (4 weeks at 40° C.), the “Apparent Rh [nm] 4 weeks” value amounted to 3.75 ± 0.08 nm and the “Scattering Intensity (I) [%] 4 weeks” value is on record as 100 ± 0%. In addition, at recombinant human CRF2, the “nH (Hill coefficient)” value is recorded as 0.6. The compound also registered a concentration for a half-maximal effect (EC50) in the data set on rat CRF2R α receptor of 0.34 nM.

The values are drawn from US12679878B2, “CRF2 receptor agonists and their use in therapy” (SANOFI, priority 2020, dated 2026).
